According to paper PMC6832920, “Synthesis, Docking Studies, and In Vitro Evaluation of Some Novel Thienopyridines and Fused Thienopyridine–Quinolines as Antibacterial Agents and DNA Gyrase Inhibitors” (Molecules, 2019):
Values after ≈ are worked out from the molar mass of the structure shown.

What was measured:
[1] = system: Staphylococcus aureus 25923; experiment: agar disc-diffusion antibacterial assay; type: cell-based; conditions: S. aureus 25923, disc loaded with 100 μg, 37 °C, 24 h, read-out: diameter of inhibition zone
Method: (§1) The clinical control strains of Gram-negative bacteria (Escherichia coli 8739, Salmonella typhimurium 14028, Pseudomonas aeruginosa 27853) and Gram-positive bacteria (Bacillus subtilis 6633, Bacillus cereus 33018, Staphylococcus aureus 25923), were obtained from microbial inoculums by subculturing microorganisms into nutrient broth (NB) at 37 °C for 18 h, and were adjusted to 0.125 A° at 625 nm (equivalent to a McFarland 0.5) in 2-fold NB. A 100 μL measure of NB containing each test microorganism was added to the sterile Petri dishes. Antibacterial testing was carried out on all compounds (3a,b–14) using the agar disc-diffusion method [40]. Sterile nutrients were inoculated with 100 μL cell suspension of the chosen test microorganism and poured into Petri dishes (20 cm diameter). Filter paper discs (Whatman, No.3, diameter 5 mm) were loaded with 10 μL containing 100 μg of the tested compounds, as well as the standard drug. Composite compound disks were placed on the surface of inoculated agar plates and kept at low temperatures before incubation in order to support the swelling and diffusion of the microbial growth. The plates were incubated at 37 °C in the incubator. Experiments were performed in duplicate and the diameters of inhibition zones were measured after 24 h. A diameter of inhibition zone (DIZ) assay was performed to evaluate the antimicrobial potential of the compounds against the tested organisms compared with reference antibiotics.

Bacillus cereus 33018 [2] = experiment: MIC determination by dilution procedure; type: cell-based; conditions: B. cereus 33018, dilutions 125-1.95 μg/mL, read-out: minimum inhibitory concentration (MIC)
Method: (§2) A 100 μL measure of NB containing each test microorganism was added to the sterile Petri dishes. Antibacterial testing was carried out on all compounds (3a,b–14) using the agar disc-diffusion method [40]. Sterile nutrients were inoculated with 100 μL cell suspension of the chosen test microorganism and poured into Petri dishes (20 cm diameter). Filter paper discs (Whatman, No.3, diameter 5 mm) were loaded with 10 μL containing 100 μg of the tested compounds, as well as the standard drug. Composite compound disks were placed on the surface of inoculated agar plates and kept at low temperatures before incubation in order to support the swelling and diffusion of the microbial growth. The plates were incubated at 37 °C in the incubator. Experiments were performed in duplicate and the diameters of inhibition zones were measured after 24 h. A diameter of inhibition zone (DIZ) assay was performed to evaluate the antimicrobial potential of the compounds against the tested organisms compared with reference antibiotics.

[3] = system: Salmonella typhimurium 14028; experiment: MIC determination by dilution procedure; type: cell-based; conditions: Salmonella enterica; S. typhimurium 14028; dilutions 125-1.95 μg/mL; read-out: minimum inhibitory concentration (MIC)
Method: (§3) The clinical control strains of Gram-negative bacteria (Escherichia coli 8739, Salmonella typhimurium 14028, Pseudomonas aeruginosa 27853) and Gram-positive bacteria (Bacillus subtilis 6633, Bacillus cereus 33018, Staphylococcus aureus 25923), were obtained from microbial inoculums by subculturing microorganisms into nutrient broth (NB) at 37 °C for 18 h, and were adjusted to 0.125 A° at 625 nm (equivalent to a McFarland 0.5) in 2-fold NB. A 100 μL measure of NB containing each test microorganism was added to the sterile Petri dishes. Antibacterial testing was carried out on all compounds (3a,b–14) using the agar disc-diffusion method [40]. Sterile nutrients were inoculated with 100 μL cell suspension of the chosen test microorganism and poured into Petri dishes (20 cm diameter). Filter paper discs (Whatman, No.3, diameter 5 mm) were loaded with 10 μL containing 100 μg of the tested compounds, as well as the standard drug. Composite compound disks were placed on the surface of inoculated agar plates and kept at low temperatures before incubation in order to support the swelling and diffusion of the microbial growth. The plates were incubated at 37 °C in the incubator. Experiments were performed in duplicate and the diameters of inhibition zones were measured after 24 h.

[4] = system: Staphylococcus aureus 25923; experiment: MIC determination by dilution procedure; type: cell-based; conditions: Staphylococcus aureus, 25923, S. aureus 25923; dilutions 125-1.95 μg/mL; read-out: minimum inhibitory concentration (MIC)
Method: as §2

Bacillus subtilis 6633 [5] = experiment: MIC determination by dilution procedure; type: cell-based; conditions: B. subtilis 6633, dilutions 125-1.95 μg/mL, read-out: minimum inhibitory concentration (MIC)
Method: as §2

Bacillus cereus 33018 [6] = experiment: agar disc-diffusion antibacterial assay; type: cell-based; conditions: B. cereus 33018, disc loaded with 100 μg, 37 °C, 24 h, read-out: diameter of inhibition zone
Method: as §2

[7] = system: Salmonella typhimurium 14028; experiment: agar disc-diffusion antibacterial assay; type: cell-based; conditions: Salmonella enterica; S. typhimurium 14028; disc loaded with 100 μg; 37 °C, 24 h; read-out: diameter of inhibition zone
Method: as §3

Escherichia coli 8739 [8] = experiment: agar disc-diffusion antibacterial assay; type: cell-based; conditions: E. coli 8739, disc loaded with 100 μg, 37 °C, 24 h, read-out: diameter of inhibition zone
Method: as §1

DNA gyrase from E. coli = target: T1, DNA gyrase from E. coli (Escherichia coli, UniProt P0AES6); experiment: Escherichia coli DNA gyrase supercoiling inhibition assay; type: biochemical
T1 construct: purchased TopoGEN

[9] = system: methicillin-resistant Staphylococcus aureus (MRSA); experiment: inhibition zones against MRSA (disc diffusion); type: cell-based
Bacillus subtilis 6633 [10] = experiment: agar disc-diffusion antibacterial assay; type: cell-based; conditions: B. subtilis 6633, disc loaded with 100 μg, 37 °C, 24 h, read-out: diameter of inhibition zone
Method: as §2

[11] = system: Pseudomonas aeruginosa 27853; experiment: agar disc-diffusion antibacterial assay; type: cell-based; conditions: P. aeruginosa 27853, disc loaded with 100 μg, 37 °C, 24 h, read-out: diameter of inhibition zone
Method: as §1

[12] = system: Pseudomonas aeruginosa 27853; experiment: MIC determination by dilution procedure; type: cell-based; conditions: Pseudomonas aeruginosa, 27853, P. aeruginosa 27853; dilutions 125-1.95 μg/mL; read-out: minimum inhibitory concentration (MIC)
Escherichia coli 8739 [13] = experiment: MIC determination by dilution procedure; type: cell-based; conditions: E. coli 8739, dilutions 125-1.95 μg/mL, read-out: minimum inhibitory concentration (MIC)

Row | Structure (SMILES) | zone of inhibition at 100 µg/disc [1] | MIC (Bacillus cereus 33018 [2]) | MIC [3] | MIC [4] | MIC (Bacillus subtilis 6633 [5]) | zone of inhibition at 100 µg/disc (Bacillus cereus 33018 [6]) | zone of inhibition at 100 µg/disc [7] | zone of inhibition at 100 µg/disc (Escherichia coli 8739 [8]) | IC50 (DNA gyrase from E. coli) | zone of inhibition against MRSA [9] | zone of inhibition at 100 µg/disc (Bacillus subtilis 6633 [10]) | zone of inhibition at 100 µg/disc [11] | MIC [12] | MIC (Escherichia coli 8739 [13]) | melting point
1 | COc1ccc(-c2cc(-c3ccco3)nc3sc4c(NC(=O)CNN)c5c(nc4c23)CCCC5)cc1 [Compound 7a, N-(2-(furan-2-yl)-4-(4-methoxyphenyl)-6,7,8,9-tetrahydropyrido[3′,2′:4,5]thieno[3,2-b]quinolin-10-yl)-2-hydrazinylacetamide] | 19 mm | 15.6 µg/mL (≈ 31.3 µM) | 31.2 µg/mL (≈ 62.6 µM) | 15.6 µg/mL (≈ 31.3 µM) | 15.6 µg/mL (≈ 31.3 µM) | 15 mm | 11 mm | 16 mm | 8.66 ± 0.61 µM | 18 mm | 17 mm | 11 mm | 31.2 µg/mL (≈ 62.6 µM) | 15.6 µg/mL (≈ 31.3 µM) | 278 °C
2 | COc1ccc(-c2cc(-c3ccco3)nc3sc4c(NC(=O)CN5CCN(C)CC5)c5c(nc4c23)CCCC5)cc1 [Compound 9b, N-(2-(furan-2-yl)-4-(4-methoxyphenyl)-6,7,8,9-tetrahydropyrido[3′,2′:4,5]thieno[3,2-b]quinolin-10-yl)-2-(4-methylpiperazin-1-yl)acetamide] | 16 mm | 15.6 µg/mL (≈ 27.5 µM) | 15.6 µg/mL (≈ 27.5 µM) | 15.6 µg/mL (≈ 27.5 µM) | 15.6 µg/mL (≈ 27.5 µM) | 18 mm | 19 mm | 20 mm | 5.78 ± 0.46 µM | 14 mm | 15 mm | 18 mm | 15.6 µg/mL (≈ 27.5 µM) | 15.6 µg/mL (≈ 27.5 µM) | 158 to 159 °C
3 | COc1ccc(-c2cc(-c3ccco3)nc3sc4c(N=Cc5cccs5)c5c(nc4c23)CCCC5)cc1 [Compound 12b, N-(2-(furan-2-yl)-4-(4-methoxyphenyl)-6,7,8,9-tetrahydropyrido[3′,2′:4,5]thieno[3,2-b]quinolin-10-yl)-1-(thiophen-2-yl)methanimine] | 16 mm | 15.6 µg/mL (≈ 30 µM) | 15.6 µg/mL (≈ 30 µM) | 15.6 µg/mL (≈ 30 µM) | 15.6 µg/mL (≈ 30 µM) | 15 mm | 16 mm | 18 mm | 4.6 ± 0.28 µM | 15 mm | 15 mm | 16 mm | 15.6 µg/mL (≈ 30 µM) | 15.6 µg/mL (≈ 30 µM) | 114 °C
